According to patent US12509452B2, “Substituted-isoxazoline-containing aromatic compound, preparation method therefor, herbicidal composition and use thereof” (QINGDAO KINGAGROOT CHEMICAL COMPOUND CO., LTD., priority 2019, dated 2025):

Columns and labels:
Experiment in all cases: weeding effect in post-emergence stage
Format in all cases: in vivo
Alopecurus japonicus = test system: Alopecurus japonicus
Summary of the method: (§1)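 Post-emergence greenhouse pot test: 2-3 leaf weeds sprayed (acetone/Tween 80 formulation plus 1.5 liter/ha methyl oleate EC) at 500, 250, 125, 60, 15, 7.5 g a.i./ha; fresh weight control rate read 3 weeks later, graded 0 (<5%) to 5 (>85%); n=3 averages.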

Beckmannia syzigachne = test system: Beckmannia syzigachne
Summary of the method: as §1

Conyza japonica = test system: Conyza japonica
Summary of the method: as §1

Rorippa indica = test system: Rorippa indica
Summary of the method: as §1

SMILES | weeding effect in post-emergence stage, Alopecurus japonicus (activity level) (Alopecurus japonicus; dose 15 g a.i./ha) | weeding effect in post-emergence stage, Beckmannia syzigachne (activity level) (Beckmannia syzigachne; dose 15 g a.i./ha) | weeding effect in post-emergence stage, Conyza japonica (activity level) (Conyza japonica; dose 15 g a.i./ha) | weeding effect in post-emergence stage, Rorippa indica (activity level) (Rorippa indica; dose 15 g a.i./ha) | weeding effect in post-emergence stage, Alopecurus japonicus (activity level) (Alopecurus japonicus; dose 125 g a.i./ha) | weeding effect in post-emergence stage, Beckmannia syzigachne (activity level) (Beckmannia syzigachne; dose 125 g a.i./ha) | weeding effect in post-emergence stage, Conyza japonica (activity level) (Conyza japonica; dose 125 g a.i./ha) | weeding effect in post-emergence stage, Rorippa indica (activity level) (Rorippa indica; dose 125 g a.i./ha)
Cn1c(=S)n(C)c(=O)n(-c2cc(C3=NOC(C)(C(=O)OCCCF)C3)c(Cl)cc2F)c1=O (stereo not shown) [Compound 1-88] | 5 (Level 5: growth control rate is above 85%) | 5 (Level 5: growth control rate is above 85%) | 5 (Level 5: growth control rate is above 85%) | 5 (Level 5: growth control rate is above 85%) |  |  |  | 
CCOC(=O)C1(CC2CC2)CC(c2cc(-n3c(=O)n(C)c(=S)n(C)c3=O)c(F)cc2Cl)=NO1 (racemic) [Compound 26] | 5 (Level 5: growth control rate is above 85%) | 5 (Level 5: growth control rate is above 85%) | 5 (Level 5: growth control rate is above 85%) | 5 (Level 5: growth control rate is above 85%) | 5 (Level 5: growth control rate is above 85%) | 5 (Level 5: growth control rate is above 85%) | 5 (Level 5: growth control rate is above 85%) | 5 (Level 5: growth control rate is above 85%)
CCOC(=O)C1(C)CC(c2cc(-n3c(=O)n(C)c(=S)n(C)c3=O)c(F)cc2Cl)=NO1 (stereo not shown) [Control compound A, reference compound] | 3 (Level 3: growth control rate is greater than or equal to 40% and less than 60%) | 2 (Level 2: growth control rate is greater than or equal to 20% and less than 40%) | 2 (Level 2: growth control rate is greater than or equal to 20% and less than 40%) | 2 (Level 2: growth control rate is greater than or equal to 20% and less than 40%) |  |  |  | 
CCOC(=O)CCCC1(C)CC(c2cc(-n3c(=O)cc(C(F)(F)F)n(C)c3=O)c(F)cc2Cl)=NO1 (stereo not shown) [Compound 1-39] | 5 (Level 5: growth control rate is above 85%) | 5 (Level 5: growth control rate is above 85%) | 5 (Level 5: growth control rate is above 85%) | 5 (Level 5: growth control rate is above 85%) |  |  |  | 
CCOC(=O)[C@@]1(C2CCC2)CC(c2cc(-n3c(=O)cc(C(F)(F)F)n(C)c3=O)c(F)cc2Cl)=NO1 [126(S)] | 5 (Level 5: growth control rate is above 85%) | 5 (Level 5: growth control rate is above 85%) | 5 (Level 5: growth control rate is above 85%) | 5 (Level 5: growth control rate is above 85%) |  |  |  | 
CCOC(=O)C1(C)ON=C(c2cc(-n3c(=O)n(C)c(=S)n(C)c3=O)c(F)cc2Cl)C1C (stereo not shown) [Compound 1-101] | 5 (Level 5: growth control rate is above 85%) | 5 (Level 5: growth control rate is above 85%) | 5 (Level 5: growth control rate is above 85%) | 5 (Level 5: growth control rate is above 85%) |  |  |  | 
COC(=O)[C@@]1(F)CC(c2cc(-n3c(=O)cc(C(F)(F)F)n(C)c3=O)c(F)cc2Cl)=NO1 [129(S)] | 5 (Level 5: growth control rate is above 85%) | 5 (Level 5: growth control rate is above 85%) | 5 (Level 5: growth control rate is above 85%) | 5 (Level 5: growth control rate is above 85%) |  |  |  | 
CCOC(=O)C1(C(F)(F)F)CC(c2cc(-n3c(=O)cc(C(F)(F)F)n(C)c3=O)c(F)cc2Cl)=NO1 (racemic) [Compound 135] |  |  |  |  | 5 (Level 5: growth control rate is above 85%) | 5 (Level 5: growth control rate is above 85%) | 5 (Level 5: growth control rate is above 85%) | 5 (Level 5: growth control rate is above 85%)
CCOC(=O)C1(C)CC(c2cc(-n3c(=O)n(C)c(=S)n(C)c3=O)c(F)cc2C(F)(F)F)=NO1 (stereo not shown) [Compound 1-67] | 5 (Level 5: growth control rate is above 85%) | 5 (Level 5: growth control rate is above 85%) | 5 (Level 5: growth control rate is above 85%) | 5 (Level 5: growth control rate is above 85%) |  |  |  | 
